Assay results taken from patent US20140326192A1, “ANTIMICROBIAL ANIMAL PRODUCT” (COVENTRY UNIVERSITY, priority 2011, published 2014).

Assay: Stability of the antimicrobial agent to melting during processing (activity retained)
Type: physicochemical
Protocol: Bundles of the dosed and non-dosed fibres were melted at 170° C. and compressed, to manufacture a number of continuous, smooth, 2 mm thick plastic sheets. The sheets were cut to create 50×50 mm area test pieces, as required by the standard test for Anti Microbial Activity ISO 22196:2007. This test is an appropriate method for assessing the surface antimicrobial activity of plastic materials when micro-organisms are placed onto the test piece.
3-(trihydroxysilyl)propyldimethyl octodecyl ammonium chloride was combined with polypropylene stock at a dosing rate of around 1% by total weight and the mixture melted, before extruding it into fibres. Control fibres were produced by a method identical other than omission of the 3-(trihydroxysilyl)propyldimethyl octodecyl ammonium chloride. The fibres were 0.45 mm with an X shape cross section and 100 mm long.

CCCCCCCCCCCCCCCCCC[N+](C)(C)CCC[Si](O)(O)O.[Cl-] [antimicrobial agent, 3-(trihydroxysilyl)propyldimethyl octodecyl ammonium chloride]
stability to re-melting of the fibres when making the test pieces (fibres melted at 170° C. and compressed): sufficiently stable | stability after melting when making the fibres (melting to 200° C.): sufficiently stable
